Results reported in patent EP2283839A1, “Polyunsaturated hydroxylated molecule having an eze geometry and its use in therapy” (Institut National des Sciences Appliquées de Lyon, priority 2009, dated 2011).
Marks after values point to notes of the source that are not given here.

Test system: platelets isolated from human blood
Test: Measurement of platelet aggregation (turbidimetric method, aggregometer)
Assay type: cell-based
Conditions: 1 µM triene molecules; Collagen-induced platelet aggregation; measured after 4 min
Procedure: Aggregation tests were performed on platelets isolated from human blood in presence or not of different dihydroxylated triene compounds with different double bond geometry: ZEE, EZE or ZZZ. Platelet aggregation was determined by a standard turbidimetric method using a dual aggregometer (CHRONO-LOG, USA). The levels of light transmission were calibrated as 0 % for a platelet suspension and 100% for the Tyrode/HEPES solution (pH 7.35). 400 µl of platelet suspension in a vial was preincubated for 1 min at 37 °C under a continuous stirring condition, 1 µl of sample in ethanol was added for incubation, the activators (collagen, arachidonic acid, or U46619) were added after 2 min of incubation and the extent of platelet aggregation was measured after 4 min running. Other compounds were prepared using the same procedure or by conversion of PDX and compared to similar compounds of different configurations ZEE or EEE. Table I: Effects of 1 µM triene molecules on Collagen-induced platelet aggregation

Structure (SMILES)	% inhibition
CCCCC/C=C\C[C@H](O)/C=C/C=C\C=C\[C@@H](O)CCCC(=O)O [5(S),12(S)-diHETE, 5(S),12(S)-dihydroxy-eicosa-6E,8Z,10E,14Z tetraenoic acid]	74.9** %
CCCCC/C=C\C[C@@H](O)/C=C/C=C/C=C/[C@@H](O)CCCC(=O)O [6-trans LTB4, 5(S),12(R)-dihydroxy-eicosa-6E,8E,10E,14Z-tetraenoic acid]	8.1%
CCCCC/C=C\C[C@H](O)/C=C/C=C/C=C/[C@@H](O)CCCC(=O)O [6trans-12-epi LTB4, 5(S),12(S)-dihydroxy-eicosa-6E,8E,10E,14Z-tetraenoic acid]	1.8%
CCCCC[C@H](O)/C=C/C=C\C=C\[C@@H](O)C/C=C\CCCC(=O)O [8(S),15(S)-diHETE, 8(S),15(S)-dihydroxy-eicosa-5Z,9E,11Z,13E -tetraenoic acid]	66.5** %
CC/C=C\C[C@H](O)/C=C/C=C\C=C\[C@H](O)C/C=C\C/C=C\CCC(=O)O [10(R),17(S)-diOH-22:6, 10(R),17(S)-dihydroxy-docosa-4Z,7Z,11E,13Z,15E,17Z-hexaenoic acid]	70.0** %
CCCCCCCC[C@H](O)/C=C/C=C/C=C\[C@@H](O)CCCC(=O)O [12-epi LTB3, 5(S),12(S)-dihydroxy-eicosa-6Z,8E,10E,-trienoic acid]	7.4%
CCCCC/C=C\C[C@H](O)/C=C/C=C/C=C\[C@@H](O)CCCC(=O)O [12-epi LTB4, 5(S),12(S)-dihydroxy-eicosa-6Z,8E,10E,14Z-tetraenoic acid]	3.9%
CCCCCCCC[C@@H](O)/C=C/C=C/C=C\[C@@H](O)CCCC(=O)O [LTB3, 5(S),12(R)-dihydroxy-eicosa-6Z,8E,10E,-trienoic acid]	5.0%
CCCCC/C=C\C[C@@H](O)/C=C/C=C/C=C\[C@@H](O)CCCC(=O)O [LTB4, 5(S),12(R)-dihydroxy-eicosa-6Z,8E,10E,14Z-tetraenoic acid]	3.4%
CC/C=C\C[C@H](O)/C=C/C=C\C=C\[C@@H](O)C/C=C\C/C=C\CCC(=O)O [PDX, 10S,17S-dihydroxy-docosa-4Z,7Z,11E,13Z,15E,19Z-hexaenoic acid]	56.1** %
CCCCC[C@H](O)/C=C/C=C\C=C\[C@@H](O)CCCCCCCCC(=O)O [diOH-22:3, 10(S),17(S)-dihydroxy-docosa-11E,13Z,15E,-trienoic acid]	63.8** %
